Measured values published in ChEMBL document CHEMBL1201862, “PubChem BioAssay data set” (2004).
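Five compound concentrations were applied to cells in 96-well plates for 48 hours; endpoints were derived by simple linear interpolation of the resulting dose-response curve. GI50 = concentration required for 50% inhibition of growth.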 The source made the active and inactive calls. Rule as the data show it: active = GI50 up to about 1.1 µM and inactive = higher.

Assays:
Test in all cases: growth of human tumour cells (NCI), 48 h
A498 = tested on: A498
ACHN = tested on: ACHN
HCT-116 = tested on: HCT-116
HOP-62 = tested on: HOP-62
Hs-578T = tested on: Hs-578T
IGROV-1 = tested on: IGROV-1
OVCAR-8 = tested on: OVCAR-8
RXF 393 = tested on: RXF 393
SF-268 = tested on: SF-268
SF-295 = tested on: SF-295
SK-MEL-5 = tested on: SK-MEL-5
SK-OV-3 = tested on: SK-OV-3
SN12C = tested on: SN12C
SNB-19 = tested on: SNB-19
TK-10 = tested on: TK-10
UACC-257 = tested on: UACC-257
HOP-92 = tested on: HOP-92
PC-3 = tested on: PC-3
RPMI-8226 = tested on: RPMI-8226

Measured: GI50

Oc1cn(-c2ccc(Cl)cc2)nc1-c1nnc(Nc2ccccc2)o1
inactive: A498 12.6 µM | ACHN 25.6 µM | HCT-116 16.1 µM | HOP-62 17.7 µM | Hs-578T 24.1 µM | IGROV-1 15.2 µM | OVCAR-8 20.9 µM | RXF 393 16 µM | SF-268 14.6 µM | SF-295 18.9 µM | SK-MEL-5 11.4 µM | SK-OV-3 24.3 µM | SN12C 16.1 µM | SNB-19 20.9 µM | TK-10 18.5 µM | UACC-257 21.3 µM

COCOc1ccc(C2(O)Oc3cc(OCOC)ccc3C2C)c(O)c1 (centres undefined)
inactive: A498 15.5 µM | ACHN 12.9 µM | HCT-116 14.3 µM | HOP-62 18 µM | HOP-92 16.2 µM | IGROV-1 17.6 µM | OVCAR-8 16.8 µM | PC-3 13.2 µM | RPMI-8226 11.7 µM | RXF 393 16.4 µM | SF-268 15.9 µM | SF-295 14.5 µM | SK-MEL-5 11 µM | SK-OV-3 17.5 µM | SN12C 16.4 µM | SNB-19 16 µM | TK-10 17.9 µM | UACC-257 12.1 µM

NC(=O)CC1(O)C=CC(=O)C=C1
inactive: A498 > 100 µM | ACHN > 100 µM | HCT-116 > 100 µM | HOP-62 > 100 µM | HOP-92 > 100 µM | IGROV-1 > 100 µM | OVCAR-8 > 100 µM | PC-3 > 100 µM | RPMI-8226 > 100 µM | RXF 393 > 100 µM | SF-295 > 100 µM | SK-MEL-5 > 100 µM | SK-OV-3 > 100 µM | SN12C > 100 µM | SNB-19 > 100 µM | TK-10 > 100 µM | UACC-257 > 100 µM

C=C(C)[C@H]1CC[C@@]23O[C@@H]2[C@@H](C[C@@]2(C)CC(=O)[C@H](CC(=O)C1)O2)OC(=O)[C@@]12CC[C@H](C(=C)C)CC(=O)C[C@H]4O[C@](C)(CC4=O)C[C@@H](OC3=O)[C@@H]1O2 [SINGARDIN]
inactive: A498 > 100 µM | ACHN > 100 µM | HCT-116 > 100 µM | HOP-62 > 100 µM | HOP-92 > 100 µM | IGROV-1 52.8 µM | OVCAR-8 > 100 µM | PC-3 > 100 µM | RPMI-8226 > 100 µM | RXF 393 > 100 µM | SF-295 > 100 µM | SK-MEL-5 74.5 µM | SK-OV-3 > 100 µM | SN12C > 100 µM | SNB-19 > 100 µM | TK-10 > 100 µM | UACC-257 > 100 µM

O=C1CC(c2ccc[nH]2)=NN1c1ccccc1
inactive: A498 > 100 µM | ACHN > 100 µM | HCT-116 > 100 µM | HOP-62 > 100 µM | HOP-92 > 100 µM | OVCAR-8 > 100 µM | PC-3 > 100 µM | RPMI-8226 > 100 µM | RXF 393 > 100 µM | SF-268 > 100 µM | SF-295 > 100 µM | SK-MEL-5 > 100 µM | SK-OV-3 > 100 µM | SN12C > 100 µM | SNB-19 > 100 µM | TK-10 > 100 µM | UACC-257 > 100 µM

NCCCCc1cc(O)c2c(c1O)C(=O)c1ccccc1C2=O
inactive: A498 18.2 µM | ACHN 11.2 µM | HCT-116 4.75 µM | HOP-62 8.39 µM | HOP-92 14.4 µM | IGROV-1 8 µM | OVCAR-8 5.09 µM | PC-3 10.4 µM | RPMI-8226 7.13 µM | RXF 393 12.9 µM | SF-268 13.8 µM | SF-295 14.1 µM | SK-MEL-5 12.4 µM | SK-OV-3 14.9 µM | SN12C 10.6 µM | SNB-19 14.2 µM | TK-10 15.4 µM | UACC-257 17.5 µM

CC(=O)O[C@H]1CC[C@@]2(C)C(=CC[C@@H]3[C@@H]2CC[C@]2(C)C(=O)/C(=C\c4ccccc4)C[C@@H]32)C1
inactive: A498 > 100 µM | ACHN > 100 µM | HCT-116 96.2 µM | HOP-62 94 µM | HOP-92 > 100 µM | IGROV-1 > 100 µM | OVCAR-8 > 100 µM | PC-3 64.7 µM | RPMI-8226 > 100 µM | RXF 393 40.5 µM | SF-268 > 100 µM | SF-295 > 100 µM | SK-MEL-5 39.4 µM | SK-OV-3 > 100 µM | SN12C > 100 µM | SNB-19 > 100 µM | TK-10 > 100 µM | UACC-257 > 100 µM

Cc1sc2nc3n(c(=O)c2c1C)N=CN(c1ccc(Cl)cc1)C3
inactive: A498 > 100 µM | ACHN > 100 µM | HCT-116 > 100 µM | HOP-62 99.3 µM | HOP-92 > 100 µM | IGROV-1 > 100 µM | OVCAR-8 > 100 µM | PC-3 > 100 µM | RPMI-8226 > 100 µM | RXF 393 > 100 µM | SF-268 39.4 µM | SF-295 > 100 µM | SK-MEL-5 > 100 µM | SK-OV-3 > 100 µM | SN12C > 100 µM | SNB-19 > 100 µM | TK-10 > 100 µM | UACC-257 > 100 µM
